Several values for one entry are separate records, joined by “and”; a condition that tells them apart may be missing. Equal values may be shown once.
Target: T1, Cholesteryl ester transfer protein (Homo sapiens, UniProt P11597)
T1 sequence (P11597 whole entry): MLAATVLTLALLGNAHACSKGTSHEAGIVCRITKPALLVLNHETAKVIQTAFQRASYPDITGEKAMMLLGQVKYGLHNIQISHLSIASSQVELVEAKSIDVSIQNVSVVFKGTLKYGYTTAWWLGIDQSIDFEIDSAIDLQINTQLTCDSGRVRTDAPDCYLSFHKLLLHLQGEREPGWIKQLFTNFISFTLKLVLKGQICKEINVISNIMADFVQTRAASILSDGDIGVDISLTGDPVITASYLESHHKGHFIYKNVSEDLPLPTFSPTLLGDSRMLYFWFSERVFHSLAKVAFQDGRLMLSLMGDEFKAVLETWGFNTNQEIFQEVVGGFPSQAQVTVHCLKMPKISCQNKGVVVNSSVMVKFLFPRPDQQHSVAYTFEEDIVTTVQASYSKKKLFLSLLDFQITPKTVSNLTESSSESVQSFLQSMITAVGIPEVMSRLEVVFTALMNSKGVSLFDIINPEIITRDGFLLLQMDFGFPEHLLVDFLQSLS
Assay: CETP Inhibition Assay: A recombinant human CETP protein (manufactured by Roar Biomedical Inc.; 4.5 ng), the acceptor lipoprotein described in (2) above (32.5 μg) and 5,5'-dithio-bis-(2-nitrobenzoic acid) (7 mM, 15 μl) were taken in a 96 well plate and the total amount of the mixture was adjusted to 48.5 μl with the PBS solution. The test compound [DMSO solution (concentration: 0.15, 0.5, 1.5, 5, 15, 50, 150 and 500 μM); 1.5 μl] was added to each well and the mixture was incubated in a thermostatic bath at 37 °C. for 60 minutes. The reconstituted HDL (50 μl) described in (1) above was added to each well and the mixture was reacted in a thermostatic bath at 37 °C. for 60 minutes. The 96 well plate was moved onto ice and a precipitation reagent [a mixed solution of magnesium chloride (60 mM) and 0.1% dextran sulfate[1/1(v/v)]; 15 μl] was added to each well, and then the mixture was allowed to stand on ice for 15 minutes. The reaction solution (80 μl) in each well was moved to a filter plate and centrifuged at 1500 rpm for 1 minute, and the filtrate which passed through the filter was designated as the HDL fraction and the radioactivity thereof was measured with a scintillation counter.

CC(C)(O)CCOc1cnc(N2CCC(c3nc4c(c(C5CCC(F)(F)CC5)c3[C@@H](F)c3ccc(C(F)(F)F)cc3)[C@@H](O)CC(C)(C)C4)CC2)nc1
IC50: 0.0178 µM and 0.0213 µM

From ChEMBL document CHEMBL3886662, “Acid addition salt of substituted pyridine compound” (2016)
